Laboratory results taken from ChEMBL document CHEMBL4390659, “Molecular hybridization approach for phenothiazine incorporated 1,2,3-triazole hybrids as promising antimicrobial agents: Design, synthesis, molecular docking and in silico ADME studies” (Eur J Med Chem, 2019).
In brackets after ≈: the same amount, converted by molar mass.

Experiments:
[1] = test system: Mycobacterium tuberculosis; assay: Antibacterial activity against Mycobacterium tuberculosis H37Rv infected in Swiss albino mouse assessed as log reduction in bacterial burden in spleen at 26 mg/kg, po administered via gavage starting from 6 weeks post infection measured after 3 to 4 weeks co-treated with rifampicin; type: functional
[2] = test system: Mycobacterium tuberculosis; assay: Antibacterial activity against Mycobacterium tuberculosis H37Rv infected in Swiss albino mouse assessed as log reduction in bacterial burden in lungs at 26 mg/kg, po administered via gavage starting from 6 weeks post infection measured after 3 to 4 weeks co-treated with rifampicin; type: functional
[3] = test system: Mycobacterium tuberculosis; assay: Antibacterial activity against Mycobacterium tuberculosis H37Rv infected in Swiss albino mouse assessed as log reduction in bacterial burden in lungs at 26 mg/kg, po administered via gavage starting from 6 weeks post infection measured after 3 to 4 weeks co-treated with isoniazid; type: functional
[4] = test system: Mycobacterium tuberculosis; assay: Antibacterial activity against Mycobacterium tuberculosis H37Rv infected in Swiss albino mouse assessed as log reduction in bacterial burden in spleen at 26 mg/kg, po administered via gavage starting from 6 weeks post infection measured after 3 to 4 weeks co-treated with isoniazid; type: functional
Escherichia coli = assay: Antibacterial activity against Escherichia coli incubated for 24 hrs by agar dilution method; type: functional
[5] = test system: Mycobacterium tuberculosis; assay: Antibacterial activity against Mycobacterium tuberculosis H37Rv ATCC 27294 assessed as reduction in mycobacterial growth incubated for 5 days by MABA method; type: functional; details: H37Rv ATCC 27294, 120 h
Staphylococcus aureus = assay: Antibacterial activity against Staphylococcus aureus incubated for 24 hrs by agar dilution method; type: functional
[6] = test system: Mycobacterium tuberculosis; assay: Potency index, ratio of ciprofloxacin MIC to test compound MIC against Mycobacterium tuberculosis H37Rv ATCC 27294; type: functional
[7] = test system: Mycobacterium tuberculosis; assay: Potency index, ratio of streptomycin MIC to test compound MIC against Mycobacterium tuberculosis H37Rv ATCC 27294; type: functional
[8] = Cytotoxicity against African green monkey Vero cells assessed as cell growth inhibition at 6.25 ug/ml incubated for 72 hrs by MTT assay relative to control; type: cell-based; details: chlorocebus sabaeus, read-out: GI
[9] = Selectivity index, ratio of IC50 for African green monkey Vero cells to MIC for Mycobacterium tuberculosis H37Rv ATCC 27294; type: toxicity; details: read-out: Selectivity Index
[10] = test system: Mycobacterium tuberculosis; assay: Potency index, ratio of pyrazinamide MIC to test compound MIC against Mycobacterium tuberculosis H37Rv ATCC 27294; type: functional
Vero = assay: Cytotoxicity against African green monkey Vero cells assessed as reduction in cell viability incubated for 72 hrs by MTT assay; type: cell-based; details: Chlorocebus sabaeus
Pseudomonas aeruginosa = assay: Antibacterial activity against Pseudomonas aeruginosa incubated for 24 hrs by agar dilution method; type: functional

## CSc1ccc2c(c1)N(CCC1CCCCN1C)c1ccccc1S2 (centres undefined) [THIORIDAZINE]
[1]
  Activity: >1 log10CFU
[2]
  Activity: >1 log10CFU
[3]
  Activity: >1 log10CFU
[4]
  Activity: >1 log10CFU

## N#Cc1ccc(Cn2cc(CN3c4ccc(/C=N/NC(=O)c5ccc([N+](=O)[O-])cc5)cc4Sc4ccc(C(F)(F)F)cc43)nn2)cc1
Escherichia coli
  MIC: 50 µg/mL (≈ 76.4 µM)
[5]
  MIC: 2.44 µM (≈ 1.6 µg/mL)
Staphylococcus aureus
  MIC: 25 µg/mL (≈ 38.2 µM)
[6]
  Ratio: 4
[7]
  Ratio: 4
[8]
  inhibition at 72 h, 6.25 ug/ml: 8.91%
[9]
  selectivity ratio: 126
[10]
  Ratio: 2
Vero
  IC50: 1130 µg/mL (≈ 1720 µM)
Pseudomonas aeruginosa
  MIC: 50 µg/mL (≈ 76.4 µM)

## N#Cc1ccc(Cn2cc(CN3c4ccccc4Sc4cc(/C=N/NC(=O)c5ccccc5)ccc43)nn2)cc1
Escherichia coli
  MIC: 25 µg/mL (≈ 46.2 µM)
[5]
  MIC: 2.95 µM (≈ 1.6 µg/mL)
Staphylococcus aureus
  MIC: 12.5 µg/mL (≈ 23.1 µM)
[6]
  Ratio: 4
[7]
  Ratio: 4
[8]
  inhibition at 72 h, 6.25 ug/ml: 13.4%
[9]
  selectivity ratio: 32.3
[10]
  Ratio: 2
Vero
  IC50: 434 µg/mL (≈ 802 µM)
Pseudomonas aeruginosa
  MIC: 25 µg/mL (≈ 46.2 µM)
